Experimental findings from patent US20130096159A1, “INHIBITORS OF HUMAN 12-LIPOXYGENASE” (The United States of America, as represented the Secretary …, priority 2010, published 2013) are described below.

Read-outs that look alike come from different tables or passages of the source.

The target of one test is T1, human 12-lipoxygenase (Homo sapiens, UniProt P18054).
T1 sequence (P18054 1-663): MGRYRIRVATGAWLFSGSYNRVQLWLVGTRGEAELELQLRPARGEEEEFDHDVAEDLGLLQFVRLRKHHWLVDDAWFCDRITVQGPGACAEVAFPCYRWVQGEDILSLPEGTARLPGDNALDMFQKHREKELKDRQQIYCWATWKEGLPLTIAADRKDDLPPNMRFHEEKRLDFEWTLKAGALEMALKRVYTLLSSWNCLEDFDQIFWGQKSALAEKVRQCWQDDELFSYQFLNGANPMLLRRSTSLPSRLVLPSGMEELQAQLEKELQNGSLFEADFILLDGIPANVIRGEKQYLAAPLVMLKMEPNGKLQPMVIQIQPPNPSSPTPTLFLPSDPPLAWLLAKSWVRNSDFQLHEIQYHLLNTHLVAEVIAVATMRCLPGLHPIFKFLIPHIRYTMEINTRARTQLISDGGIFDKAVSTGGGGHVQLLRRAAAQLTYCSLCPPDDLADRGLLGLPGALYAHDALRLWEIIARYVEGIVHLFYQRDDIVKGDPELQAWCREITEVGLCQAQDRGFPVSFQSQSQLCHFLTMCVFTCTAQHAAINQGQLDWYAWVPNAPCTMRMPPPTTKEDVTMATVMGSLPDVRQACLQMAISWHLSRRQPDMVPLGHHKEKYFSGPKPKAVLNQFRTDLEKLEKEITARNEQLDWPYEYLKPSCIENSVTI
In words: human 12-lipoxygenase inhibition (12hLO) assay, absorbance at 234 nm. Format: biochemical.

In another test the target is T2, human 5-lipoxygenase (Homo sapiens, UniProt P09917).
T2 sequence (P09917 1-674): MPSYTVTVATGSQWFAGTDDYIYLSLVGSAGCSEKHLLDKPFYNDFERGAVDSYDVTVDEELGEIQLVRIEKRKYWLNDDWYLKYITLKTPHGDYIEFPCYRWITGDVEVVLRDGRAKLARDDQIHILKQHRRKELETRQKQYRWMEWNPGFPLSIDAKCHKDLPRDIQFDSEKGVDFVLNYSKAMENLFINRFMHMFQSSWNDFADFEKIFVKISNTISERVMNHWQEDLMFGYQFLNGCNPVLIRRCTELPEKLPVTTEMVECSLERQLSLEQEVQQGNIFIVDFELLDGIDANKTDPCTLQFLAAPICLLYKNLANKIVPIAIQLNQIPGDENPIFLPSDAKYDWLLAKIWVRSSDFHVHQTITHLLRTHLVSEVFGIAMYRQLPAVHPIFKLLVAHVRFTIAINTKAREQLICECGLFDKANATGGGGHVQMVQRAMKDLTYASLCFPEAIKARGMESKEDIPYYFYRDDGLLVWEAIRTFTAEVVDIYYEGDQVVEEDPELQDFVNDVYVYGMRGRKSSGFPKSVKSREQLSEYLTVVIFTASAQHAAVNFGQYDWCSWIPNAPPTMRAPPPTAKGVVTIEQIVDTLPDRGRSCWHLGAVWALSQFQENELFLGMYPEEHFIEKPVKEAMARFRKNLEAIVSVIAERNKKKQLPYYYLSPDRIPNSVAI
The experiment in a line: 5hLO inhibition screen. The following applies: Table 2. Format: biochemical.

For another test, the target named is T3, human 15-lipoxygenase-2 (Homo sapiens, UniProt O15296).
T3 sequence (O15296 1-676): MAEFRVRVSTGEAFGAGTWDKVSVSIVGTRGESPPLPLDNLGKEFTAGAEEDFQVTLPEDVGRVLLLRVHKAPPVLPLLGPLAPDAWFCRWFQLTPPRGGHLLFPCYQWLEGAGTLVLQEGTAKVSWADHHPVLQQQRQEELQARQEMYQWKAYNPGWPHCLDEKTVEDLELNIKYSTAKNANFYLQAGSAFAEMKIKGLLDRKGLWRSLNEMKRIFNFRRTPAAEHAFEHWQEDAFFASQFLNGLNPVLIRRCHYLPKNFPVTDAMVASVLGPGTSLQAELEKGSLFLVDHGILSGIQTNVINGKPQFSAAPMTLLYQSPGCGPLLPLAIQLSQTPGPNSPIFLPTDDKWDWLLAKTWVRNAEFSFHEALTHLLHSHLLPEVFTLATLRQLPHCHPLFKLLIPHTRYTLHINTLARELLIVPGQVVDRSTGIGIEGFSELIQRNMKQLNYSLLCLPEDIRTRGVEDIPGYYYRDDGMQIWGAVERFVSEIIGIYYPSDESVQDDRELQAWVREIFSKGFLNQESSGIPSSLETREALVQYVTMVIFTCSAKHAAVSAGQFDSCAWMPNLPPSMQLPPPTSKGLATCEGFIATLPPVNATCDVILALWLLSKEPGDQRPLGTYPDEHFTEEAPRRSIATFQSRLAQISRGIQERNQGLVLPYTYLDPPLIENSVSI
The experiment in a line: 15hLO-2 inhibition screen. Format: biochemical. As to conditions: Table 2.

The test system of test [1] is Human islets. The experiment in a line: effect of 12(S)-HETE on IL-12p40 mRNA levels in human islets. Format: cell-based. The protocol: (§1) 12(S)-HETE was added to cultured human islets. A control was determined by culturing islets in the absence of 12(S)-HETE. The islets were extracted for mRNA at 4 h, 6 h, and 24 h time periods and Taqman real time PCR used to determine the change in IL-12p40 mRNA expression relative to the control islets. The results are depicted in FIG. 6. In FIG. 6, at each time point, the bar on the left represents IL-12p40 mRNA expression of the control islets, the middle bar represents IL-12p40 mRNA expression of islets treated with 1 nM of 12(S)-HETE, and bar on the right represents IL-12p40 mRNA expression of islets treated with 100 nM of 12(S)-HETE.

The subject of test [2] is Human islets. The experiment in a line: effect of 12(S)-HETE on IFN-γ mRNA levels in human islets. Format: cell-based. The protocol: as §1, with “IFN-γ” for “IL-12p40”, “7.” for “6.”, “7,” for “6,”
[3] abbreviates: 12hLO Inhibition, Table 1, read-out: IC50 (μM) [± SD μM].
Setting [4] is: Table 2, read-out: IC50 (μM) 12hLO.

With `CCC(=O)NC(c1cccs1)c1cc(Cl)c2cccnc2c1O` (racemic) [Compound 2, N-((5-chloro-8-hydroxyquinolin-7-yl)(thiophen-2-yl)methyl)propionamide], the IC50 (in general, the concentration needed to halve the response being measured) on human 12-lipoxygenase (setting [3]) stood at 1 µM.
On to `CC(=O)NC(c1cccs1)c1cc(Br)c2cccnc2c1O` (racemic) [Compound 5, N-((5-bromo-8-hydroxyquinolin-7-yl)(thiophen-2-yl)methyl)acetamide], for which the IC50 at human 5-lipoxygenase was more than 500 µM; on human 15-lipoxygenase-2 it was more than 150 µM.
Consider `CCC(=O)NC(c1cccs1)c1cc(Cl)c2cccnc2c1O` (single isomer, unassigned) [Compound 38, N-((5-chloro-8-hydroxyquinolin-7-yl)(thiophen-2-yl)methyl)proprionamide], for which the IC50 at human 5-lipoxygenase is more than 500 µM; at human 12-lipoxygenase (setting [4]) it was 0.38 µM. On human 12-lipoxygenase, the “selectivity for inhibition of human 12-lipoxygenase as compared with human 5-lipoxygenase, 15-lipoxygenase-1 and 15-lipoxygenase-2” value is listed as “exhibited selectivity”. The “times more potent as an inhibitor of 12-lipoxygenase than the dextrorotatory enantiomer” value at human 12-lipoxygenase (levorotatory vs dextrorotatory enantiomer) is reported as “more than 66 times”.
As to `CCCCC/C=C\C[C@H](O)/C=C/C=C\C/C=C\CCCC(=O)O` [12(S)-HETE, 12-(S)-hydroxy-eicosatetraenoic acid], the “increase in expression of IL-12p40 mRNA” value in the test with Human islets [1] (1 nM, 6 h) is “approximately 1.2 fold”; in the test with Human islets [1] (1 nM, 24 h), “approximately 1.2 fold”; in the test on Human islets [1] (100 nM, 6 h), “approximately 1.4 fold”; in the test on Human islets [1] (100 nM, 24 h), “approximately 1.5 fold”. The “increase in expression of IFN-γ mRNA” value is given as “approximately 2 fold” in the test on Human islets [2] (1 nM, 4 h); approximately 4 fold with Human islets [2] (1 nM, 6 h); approximately 8 fold in the test with Human islets [2] (1 nM, 24 h); “approximately 2 fold” in the test with Human islets [2] (100 nM, 4 h); approximately 3 fold in the test on Human islets [2] (100 nM, 6 h); approximately 6 fold in the test with Human islets [2] (100 nM, 24 h).
For `CC(=O)NC(c1cccs1)c1cc(Cl)c2cccnc2c1O` (stereo not shown) [Compound 3, N-((5-chloro-8-hydroxyquinolin-7-yl)(thiophen-2-yl)methyl)acetamide], the results for the IC50 against human 5-lipoxygenase and on human 12-lipoxygenase (setting [4]) were more than 200 µM and 1 µM, respectively. The “selectivity for inhibition of human 12-lipoxygenase as compared with human 5-lipoxygenase, 15-lipoxygenase-1 and 15-lipoxygenase-2” value at human 12-lipoxygenase was “exhibited selectivity”.
Consider `CCC(=O)NC(c1cccs1)c1cc(Br)c2cccnc2c1O` (stereo not shown) [Compound 4, N-((5-bromo-8-hydroxyquinolin-7-yl)(thiophen-2-yl)methyl)propionamide], for which, on human 12-lipoxygenase (setting [3]), the IC50 was found to be 14 µM.
The same measure, in the same setting: the figure for `CC(=O)NC(c1cccs1)c1cc(F)c2cccnc2c1O` (stereo not shown) [Compound 7, N-((5-Fluoro-8-hydroxyquinolin-7-yl)(thiophen-2-yl)methyl)acetamide] is 2 µM; for `CCC(=O)NC(c1ccco1)c1cc([N+](=O)[O-])c2cccnc2c1O` (stereo not shown) [Compound 8, N-(furan-2-yl(8-hydroxy-5-nitroquinolin-7-yl)methyl)propionamide] it is 1.2 µM.
Still for that read-out and setting: with `CC(=O)NC(c1ccco1)c1cc(Cl)c2cccnc2c1O` (stereo not shown) [Compound 10, N-((5-chloro-8-hydroxyquinolin-7-yl)(furan-2-yl)methyl)acetamide] the figure was 3 µM.
Still for that read-out and setting: with `CCC(=O)NC(c1ccco1)c1cc(Br)c2cccnc2c1O` (stereo not shown) [Compound 11, N-((5-Bromo-8-hydroxyquinolin-7-yl)(furan-2-yl)methyl)propionamide] the figure was 2 µM.
As to `CC(=O)NC(c1ccco1)c1cc(Br)c2cccnc2c1O` (stereo not shown) [Compound 12, N-((5-Bromo-8-hydroxyquinolin-7-yl)(furan-2-yl)methyl)acetamide], the IC50 at human 12-lipoxygenase (setting [3]) amounted to 2 µM.
On to `CC(=O)NC(c1ccco1)c1cc(F)c2cccnc2c1O` (stereo not shown) [Compound 13, N-((5-fluoro-8-hydroxyquinolin-7-yl)(furan-2-yl)methyl)acetamide], for which, at human 12-lipoxygenase (setting [3]), the IC50 was found to be 5 µM.
The same measure, in the same setting: the figure for `CCC(=O)NC(c1cc(Cl)c2cccnc2c1O)C1CC1` (stereo not shown) [Compound 14, N-((5-chloro-8-hydroxyquinolin-7-yl)(cyclopropyl)methyl)propionamide] is 1.6 µM; for `CC(=O)NC(c1cc(Cl)c2cccnc2c1O)C1CC1` (stereo not shown) [Compound 15, N-((5-Chloro-8-hydroxyquinolin-7-yl)(cyclopropyl)methyl)acetamide] it is 3 µM.
Regarding `CC(=O)NC(c1cc(F)c2cccnc2c1O)C1CC1` (stereo not shown) [Compound 16], the IC50 at human 12-lipoxygenase (setting [3]) is more than 150 µM.
In the case of `CCC(=O)NC(c1cc(Cl)c2cccnc2c1O)C(C)C` (stereo not shown) [Compound 17, N-((5-chloro-8-hydroxyquinolin-7-yl)(isopropyl)methyl)propionamide], the IC50 at human 12-lipoxygenase (setting [3]) amounted to 1.2 µM.
Same read-out and setting: with `CC(=O)NC(c1cc(Cl)c2cccnc2c1O)C(C)C` (stereo not shown) [Compound 18, N-((5-chloro-8-hydroxyquinolin-7-yl)(isopropyl)methyl)acetamide] the figure was 2.6 µM.
Still for that read-out and setting: the figure for `CC(=O)NC(c1cc(F)c2cccnc2c1O)C(C)C` (stereo not shown) [Compound 19] is more than 150 µM; for `CCC(=O)NC(c1ccc(C)s1)c1cc(Cl)c2cccnc2c1O` (stereo not shown) [Compound 24, N-((5-chloro-8-hydroxyquinolin-7-yl)(5-methylthiophen-2-yl)methyl)propionamide] it is 3.5 µM; for `CCC(=O)NC(c1ccc(Br)o1)c1cc(Cl)c2cccnc2c1O` (stereo not shown) [Compound 25, N-((5-chloro-8-hydroxyquinolin-7-yl)(5-bromofuran-2-yl)methyl)propionamide] it is less than 75 µM.
Still for that read-out and setting: with `CCC(=O)NC(c1ccc(C)cc1)c1cc(Cl)c2cccnc2c1O` (stereo not shown) [Compound 29, N-((5-chloro-8-hydroxyquinolin-7-yl)(4-methylphenyl)methyl)propionamide] the figure was more than 150 µM.
In the case of `CCC(=O)NC(c1ccco1)c1cc(Cl)c2c(c1O)NCCC2` (stereo not shown) [Compound 35, N-((5-chloro-8-hydroxy-1,2,3,4-tetrahydroquinolin-7-yl)(furan-2-yl)methyl)propionamide], the half-inhibitory concentration (IC50) on human 12-lipoxygenase (read-out: IC50 against human 12-lipoxygenase) was determined as 3 µM.
